How the values were obtained:
Galectin-3 = Galectin-3 (Homo sapiens, UniProt P17931); experiment: (§1) Fluorescence Anisotropy Assay: Compounds for galectins were determined by a fluorescence anisotropy assay where the compound was used as an inhibitor of the interaction between galectin and a fluorescein tagged saccharide probe.
Galectin-1 = Galectin-1 (Homo sapiens, UniProt P09382); experiment: as §1
Sequence of Galectin-1 (P09382 whole entry): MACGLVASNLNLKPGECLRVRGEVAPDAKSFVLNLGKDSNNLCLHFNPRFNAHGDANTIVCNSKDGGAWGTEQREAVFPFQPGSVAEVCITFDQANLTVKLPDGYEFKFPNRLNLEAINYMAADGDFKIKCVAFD

Sequence of Galectin-3 (P17931 whole entry): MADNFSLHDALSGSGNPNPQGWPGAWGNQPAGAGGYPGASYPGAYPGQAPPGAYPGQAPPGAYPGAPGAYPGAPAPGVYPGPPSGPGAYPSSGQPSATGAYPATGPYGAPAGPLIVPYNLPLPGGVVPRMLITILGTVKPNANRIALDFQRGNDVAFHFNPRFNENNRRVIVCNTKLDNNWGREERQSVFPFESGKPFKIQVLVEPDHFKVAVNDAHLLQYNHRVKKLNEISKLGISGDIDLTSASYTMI

## OCC1O[C@H](Sc2cc(Cl)c(F)c(Cl)c2)C(O)[C@@H](n2cc(-c3nccs3)nn2)[C@H]1O (some centres not stated)
Galectin-3
  Kd: 10 µM
Galectin-1
  Kd: 0.28 µM
